Results on one molecule are retold here after ChEMBL document CHEMBL4706479, “Novel Aryloxyethyl Derivatives of 1-(1-Benzoylpiperidin-4-yl)methanamine as the Extracellular Regulated Kinases 1/2 (ERK1/2) Phosphorylation-Preferring Serotonin 5-HT Receptor-Biased Agonists with Robust Antidepressant-like Activity” (J Med Chem, 2019).

In brackets after ≈: the same amount, converted by molar mass. Activity calls are given as the source filed them. No cut-off for these calls is given here.

Series [1] can be described thus: Permeability of compound across basolateral to apical side in human Caco-2 cells at pH 7.4. The series is classed as ADME, cell-based. As to conditions: Caco-2, pH 7.4, read-out: permeability.
The target in series [2] is Sodium-dependent noradrenaline transporter (Homo sapiens) (UniProt P23975). Nature of the series: Inhibition of norepinephrine transporter (unknown origin) at 10 uM relative to control.
In series [3] the test system is Rattus norvegicus. Nature of the series: In vivo biased agonist activity at 5-HT1A receptor in rat prefrontal brain cortex assessed as increase in ERK1/2 phosphorylation levels at 0.04 to […], po measured at 15 mins by Alphalisa assay. The series is classed as functional, organism-based. As to conditions: dose lower 0.04 mg/kg, dose upper […].
Series [4] deals with D(1A) dopamine receptor (Homo sapiens) (UniProt P21728). Nature of the series: Inhibition of dopamine D1 receptor (unknown origin) at 10 uM relative to control.
Series [5] concerns the target Beta-1 adrenergic receptor (Homo sapiens) (UniProt P08588). The experiment in a line: Inhibition of adrenergic beta1 receptor (unknown origin) at 10 uM relative to control.
Series [6] concerns the target Neuronal acetylcholine receptor; alpha4/beta2 (Homo sapiens) (UniProt P17787+P43681). Nature of the series: Inhibition of nicotinic acetylcholine receptor alpha4beta2 (unknown origin) at 10 uM relative to control. The class given is protein-complex assay.
The test system of series [7] is MDCK-II. The experiment in a line: Inhibition of P-gp in human MDR1-MDCKII cells at 10 uM relative to control. The class given is cell-based. As to conditions: Canis lupus familiaris.
Series [8] concerns the target Alpha-1B adrenergic receptor (Homo sapiens) (UniProt P35368). The experiment in a line: Inhibition of adrenergic alpha-1B receptor (unknown origin) at 1 uM relative to control.
Series [9] in a line: Aqueous solubility of compound in pH 7.4 PBS buffer at 200 uM. The class given is physicochemical.
A short description of series [10]: Intrinsic clearance in human liver microsomes at 0.1 uM. As to conditions: read-out: CLH. The series is classed as ADME, Microsome.
Series [11] concerns the target MAO-A (Homo sapiens, UniProt P21397). Nature of the series: Inhibition of MAO-A (unknown origin) at 10 uM relative to control.
Series [12] deals with Kappa-type opioid receptor (Homo sapiens) (UniProt P41145). Nature of the series: Inhibition of kappa opioid receptor (unknown origin) at 10 uM relative to control.
For series [13], the target named is D(2) dopamine receptor (Homo sapiens, UniProt P14416). Nature of the series: Inhibition of dopamine D2S receptor (unknown origin) at 10 uM relative to control.
The target in series [14] is Sodium-dependent dopamine transporter (Homo sapiens) (UniProt Q01959). The experiment in a line: Inhibition of dopamine transporter (unknown origin) at 10 uM relative to control.
Series [15] is described as follows: Toxicity in Wistar rat assessed as effect on flat body posture at 0.04 to […], po observed after 60 mins post treatment. The series is classed as organism-based. As to conditions: in vivo, 1 h, dose 0.04-2.5 mg/kg.

Chain of Beta-1 adrenergic receptor (Homo sapiens) (P08588 whole entry, looked up): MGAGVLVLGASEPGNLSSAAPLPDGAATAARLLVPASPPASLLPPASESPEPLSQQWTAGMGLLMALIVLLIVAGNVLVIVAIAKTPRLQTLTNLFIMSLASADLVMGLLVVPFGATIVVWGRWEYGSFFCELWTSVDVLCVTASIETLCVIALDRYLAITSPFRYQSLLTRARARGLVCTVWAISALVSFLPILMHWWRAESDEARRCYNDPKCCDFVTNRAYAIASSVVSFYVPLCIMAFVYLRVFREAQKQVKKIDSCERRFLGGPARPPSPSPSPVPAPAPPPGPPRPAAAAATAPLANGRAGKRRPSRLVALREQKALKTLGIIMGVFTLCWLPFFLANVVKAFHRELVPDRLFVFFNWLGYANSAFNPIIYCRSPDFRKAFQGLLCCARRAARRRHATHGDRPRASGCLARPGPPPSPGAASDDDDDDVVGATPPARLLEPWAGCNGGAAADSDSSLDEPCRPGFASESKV
Chain of D(1A) dopamine receptor (Homo sapiens) (P21728 whole entry): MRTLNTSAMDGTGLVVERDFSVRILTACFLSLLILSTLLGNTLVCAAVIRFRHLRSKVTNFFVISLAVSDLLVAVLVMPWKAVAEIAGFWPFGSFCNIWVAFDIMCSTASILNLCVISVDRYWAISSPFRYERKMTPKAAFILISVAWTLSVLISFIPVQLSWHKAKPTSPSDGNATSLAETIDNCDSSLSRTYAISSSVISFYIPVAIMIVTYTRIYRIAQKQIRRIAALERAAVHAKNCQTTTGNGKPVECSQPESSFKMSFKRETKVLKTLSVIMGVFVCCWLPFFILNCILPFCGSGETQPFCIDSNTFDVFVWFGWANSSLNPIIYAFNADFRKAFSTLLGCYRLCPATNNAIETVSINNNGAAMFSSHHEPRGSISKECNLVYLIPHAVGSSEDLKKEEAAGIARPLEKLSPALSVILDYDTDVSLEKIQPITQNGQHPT
Chain of Kappa-type opioid receptor (Homo sapiens) (P41145 whole entry): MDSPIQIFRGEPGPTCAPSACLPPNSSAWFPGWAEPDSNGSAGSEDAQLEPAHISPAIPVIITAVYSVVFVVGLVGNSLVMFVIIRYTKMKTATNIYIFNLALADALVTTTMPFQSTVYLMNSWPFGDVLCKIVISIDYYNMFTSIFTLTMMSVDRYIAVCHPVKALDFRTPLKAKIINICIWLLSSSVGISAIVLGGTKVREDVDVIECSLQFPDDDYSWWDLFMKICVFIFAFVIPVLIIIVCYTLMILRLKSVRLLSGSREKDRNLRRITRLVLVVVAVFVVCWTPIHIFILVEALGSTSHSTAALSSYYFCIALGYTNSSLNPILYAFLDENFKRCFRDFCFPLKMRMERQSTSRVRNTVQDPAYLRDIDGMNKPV
Chain of MAO-A (P21397 whole entry): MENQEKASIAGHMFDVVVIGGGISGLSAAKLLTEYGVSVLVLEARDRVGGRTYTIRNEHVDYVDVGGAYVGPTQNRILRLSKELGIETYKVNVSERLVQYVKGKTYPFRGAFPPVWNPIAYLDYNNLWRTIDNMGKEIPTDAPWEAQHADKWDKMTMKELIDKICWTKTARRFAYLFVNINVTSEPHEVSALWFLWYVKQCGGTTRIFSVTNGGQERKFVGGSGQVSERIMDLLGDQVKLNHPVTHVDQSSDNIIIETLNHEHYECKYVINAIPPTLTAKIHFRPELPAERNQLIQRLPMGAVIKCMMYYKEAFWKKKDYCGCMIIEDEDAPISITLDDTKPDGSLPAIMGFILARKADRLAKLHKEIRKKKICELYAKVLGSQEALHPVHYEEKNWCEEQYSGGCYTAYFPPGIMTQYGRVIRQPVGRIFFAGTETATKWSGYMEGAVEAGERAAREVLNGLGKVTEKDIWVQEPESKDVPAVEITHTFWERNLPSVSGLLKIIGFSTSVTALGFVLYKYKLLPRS
Chain of Sodium-dependent dopamine transporter (Homo sapiens) (Q01959 whole entry): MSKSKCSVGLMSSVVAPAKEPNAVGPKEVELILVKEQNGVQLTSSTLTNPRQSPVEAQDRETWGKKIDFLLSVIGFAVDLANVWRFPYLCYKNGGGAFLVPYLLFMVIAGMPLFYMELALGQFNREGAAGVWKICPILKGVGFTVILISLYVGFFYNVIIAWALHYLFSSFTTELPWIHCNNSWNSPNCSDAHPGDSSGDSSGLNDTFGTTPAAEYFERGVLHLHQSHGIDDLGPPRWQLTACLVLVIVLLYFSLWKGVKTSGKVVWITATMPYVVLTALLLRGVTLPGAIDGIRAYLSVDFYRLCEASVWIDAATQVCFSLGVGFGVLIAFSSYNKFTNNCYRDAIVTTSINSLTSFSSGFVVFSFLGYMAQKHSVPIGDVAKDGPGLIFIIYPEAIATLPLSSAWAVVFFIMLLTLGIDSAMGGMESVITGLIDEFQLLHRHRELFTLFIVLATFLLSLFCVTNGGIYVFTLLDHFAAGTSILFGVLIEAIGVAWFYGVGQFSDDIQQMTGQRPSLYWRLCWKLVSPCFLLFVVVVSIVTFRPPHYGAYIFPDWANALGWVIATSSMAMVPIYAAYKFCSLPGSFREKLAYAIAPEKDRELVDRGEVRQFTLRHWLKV
Chain of D(2) dopamine receptor (P14416 whole entry): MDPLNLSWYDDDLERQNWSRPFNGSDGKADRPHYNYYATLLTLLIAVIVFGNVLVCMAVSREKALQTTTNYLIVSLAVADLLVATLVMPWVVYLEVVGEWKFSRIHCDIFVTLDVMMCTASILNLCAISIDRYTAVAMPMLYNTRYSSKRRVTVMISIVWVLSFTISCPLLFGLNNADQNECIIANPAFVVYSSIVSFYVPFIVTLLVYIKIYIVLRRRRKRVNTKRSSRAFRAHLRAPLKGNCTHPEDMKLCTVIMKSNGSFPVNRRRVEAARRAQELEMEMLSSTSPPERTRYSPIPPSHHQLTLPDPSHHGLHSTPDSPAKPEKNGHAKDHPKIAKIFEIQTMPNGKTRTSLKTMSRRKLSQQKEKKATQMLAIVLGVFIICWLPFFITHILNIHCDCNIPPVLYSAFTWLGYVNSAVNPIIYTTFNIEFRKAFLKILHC
Chain of Sodium-dependent noradrenaline transporter (Homo sapiens) (P23975 whole entry): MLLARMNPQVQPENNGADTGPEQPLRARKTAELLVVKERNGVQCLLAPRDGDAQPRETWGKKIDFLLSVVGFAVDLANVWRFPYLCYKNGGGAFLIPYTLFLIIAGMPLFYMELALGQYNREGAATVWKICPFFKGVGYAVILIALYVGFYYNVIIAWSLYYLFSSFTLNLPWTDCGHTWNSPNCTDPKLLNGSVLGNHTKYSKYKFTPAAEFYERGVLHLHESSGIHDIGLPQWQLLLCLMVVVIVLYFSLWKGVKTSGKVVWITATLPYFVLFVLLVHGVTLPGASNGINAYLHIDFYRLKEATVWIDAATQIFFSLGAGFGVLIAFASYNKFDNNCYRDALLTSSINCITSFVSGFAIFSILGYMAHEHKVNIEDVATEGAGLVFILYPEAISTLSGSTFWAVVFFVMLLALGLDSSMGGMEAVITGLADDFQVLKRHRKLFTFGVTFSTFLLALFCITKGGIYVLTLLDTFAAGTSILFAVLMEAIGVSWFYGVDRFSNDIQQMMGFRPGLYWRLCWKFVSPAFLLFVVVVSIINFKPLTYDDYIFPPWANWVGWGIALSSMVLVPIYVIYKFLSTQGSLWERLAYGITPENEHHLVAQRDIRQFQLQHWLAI
Chain of Alpha-1B adrenergic receptor (Homo sapiens) (P35368 whole entry): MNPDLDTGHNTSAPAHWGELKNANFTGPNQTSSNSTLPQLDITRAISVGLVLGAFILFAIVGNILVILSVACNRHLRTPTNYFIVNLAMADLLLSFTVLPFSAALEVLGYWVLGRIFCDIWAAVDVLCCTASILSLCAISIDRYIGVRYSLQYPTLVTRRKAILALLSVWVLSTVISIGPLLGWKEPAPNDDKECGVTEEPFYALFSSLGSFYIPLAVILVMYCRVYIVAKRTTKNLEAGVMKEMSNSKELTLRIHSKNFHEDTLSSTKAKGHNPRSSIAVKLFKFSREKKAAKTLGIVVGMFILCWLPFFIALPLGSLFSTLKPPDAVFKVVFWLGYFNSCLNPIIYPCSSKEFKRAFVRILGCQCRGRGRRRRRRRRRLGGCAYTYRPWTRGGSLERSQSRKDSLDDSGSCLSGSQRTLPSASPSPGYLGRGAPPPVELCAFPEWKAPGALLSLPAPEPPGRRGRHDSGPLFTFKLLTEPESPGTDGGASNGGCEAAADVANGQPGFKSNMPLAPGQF

Consider `O=C(c1ccc(F)c(Cl)c1)N1CCC(F)(CNCCOc2ccccn2)CC1`, for which the Papp B→A in [1] is 22.4 ×10⁻⁶ cm/s. The inhibition was -2% in series [2]; 38.2% in [4]; 2.2% in series [5]; -5.4% in [6]; 6.5% in series [7]; 32.2% in series [8]. Also, the inhibition is 34.6% in series [12], 91.3% in series [13] and 20.4% in [14]. Moreover, in series [3], the outcome was Active. The same molecule registered a solubility at 200 µM in [9] of 192 µM (≈ 78.8 µg/mL). For the same molecule, in series [10], the microsomal CLint at 0.1 µM is < 115 µL/min/mg. For the same molecule, the inhibition at 10 µM in series [11] is -3.6%. The Activity entry in series [15] is “Non-Toxic”.
